According to ChEMBL document CHEMBL1201862, “PubChem BioAssay data set” (2004):
Active and inactive are the calls of the source.

Key:
[1] = molecular target: 5-hydroxytryptamine receptor 1A (Homo sapiens, UniProt P08908); type: functional
[2] = molecular target: Polyadenylate-binding protein 1 (Homo sapiens, UniProt P11940); assay: PABP poly(A) RNA binding inhibitors, primary screen, biochemical, fluorescence polarization, uHTS (AID 2014)
[3] = molecular target: T1, Carboxy-terminal domain RNA polymerase II polypeptide A small phosphatase 1 (Homo sapiens, UniProt Q9GZU7); assay: inhibitors of CTDSP1, concentration-response testing, biochemical assay, absorbance-based, actives from ultra-high-throughput screening (AID 540297); type: functional
T1 sequence (Q9GZU7 whole entry): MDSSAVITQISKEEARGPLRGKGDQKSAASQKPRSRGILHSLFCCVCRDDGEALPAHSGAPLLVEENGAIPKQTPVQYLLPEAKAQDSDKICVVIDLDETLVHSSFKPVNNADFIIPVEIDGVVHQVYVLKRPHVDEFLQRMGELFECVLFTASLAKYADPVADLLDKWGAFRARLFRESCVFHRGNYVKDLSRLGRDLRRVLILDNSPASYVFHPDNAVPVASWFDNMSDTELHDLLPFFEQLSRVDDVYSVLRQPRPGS

[4] = molecular target: Eukaryotic translation initiation factor 4H (Homo sapiens, UniProt Q15056); assay: human eIF4H binding inhibitors, primary screen, translation initiation inhibitor project, biochemical, uHTS, fluorescence polarization (AID 2012)
[5] = M. tuberculosis growth inhibition, HTS (AID 449762); type: functional
Danio rerio = assay: In Vivo Angiogenesis Dose-Response Confirmation. [Related pubchem assays: 732 (Assay preceding this confirmatory assay.)]; type: functional, organism-based
[6] = molecular target: Peroxisome proliferator-activated receptor gamma/Nuclear receptor corepressor 2 (Homo sapiens, UniProt P37231+Q9Y618); assay: Counterscreen for NR2E3 inverse agonists: TR-FRET-based biochemical high throughput dose response assay to identify inverse agonists of the interaction between peroxisome proliferator-activated receptor gamma (PPARg) and nuclear receptor co-repressor 2 (NCOR2).; type: functional
[7] = molecular target: Photoreceptor-specific nuclear receptor (Homo sapiens, UniProt Q9Y5X4); assay: NR2E3 inverse agonists, dose response, biochemical, TR-FRET (AID 463256); type: functional
Sequence of Photoreceptor-specific nuclear receptor (Q9Y5X4 whole entry): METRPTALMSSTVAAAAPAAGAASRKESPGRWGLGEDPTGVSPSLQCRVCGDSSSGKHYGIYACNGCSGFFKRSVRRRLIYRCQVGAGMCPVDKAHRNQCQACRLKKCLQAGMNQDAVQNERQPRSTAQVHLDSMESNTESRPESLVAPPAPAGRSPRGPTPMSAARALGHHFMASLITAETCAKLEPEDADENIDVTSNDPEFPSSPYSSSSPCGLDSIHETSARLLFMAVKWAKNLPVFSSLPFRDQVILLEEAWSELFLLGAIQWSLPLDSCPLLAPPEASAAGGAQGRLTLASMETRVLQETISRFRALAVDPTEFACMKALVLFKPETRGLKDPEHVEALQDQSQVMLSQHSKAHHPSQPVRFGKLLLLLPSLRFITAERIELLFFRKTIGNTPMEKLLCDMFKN

Genome polyprotein = Genome polyprotein (Hepatitis C virus, UniProt Q2Q167); assay: HCV core protein dimerization inhibitors, dose response, biochemical, TR-FRET (AID 2159); set-up: species or system Hepacivirus hominis;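 note: blocks dimerization of HCV core protein measured by TR-FRET between tagged core106 pairs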
Sequence of Genome polyprotein (Q2Q167 whole entry): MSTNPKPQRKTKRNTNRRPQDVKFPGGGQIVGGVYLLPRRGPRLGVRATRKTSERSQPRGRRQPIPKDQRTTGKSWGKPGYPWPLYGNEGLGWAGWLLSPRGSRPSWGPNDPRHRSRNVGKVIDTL

H9c2 = assay: cells; type: functional, cell-based; settings: Rattus norvegicus, H9c2, Myocardium
NADPH oxidase 1 = molecular target: T2, NADPH oxidase 1 (Homo sapiens, UniProt Q9Y5S8); assay: Late-stage luminescence-based cell-based dose response assay to identify inhibitors of NADPH oxidase 1 (NOX1): Purchased analogs 2.; type: functional
T2 sequence (Q9Y5S8 whole entry): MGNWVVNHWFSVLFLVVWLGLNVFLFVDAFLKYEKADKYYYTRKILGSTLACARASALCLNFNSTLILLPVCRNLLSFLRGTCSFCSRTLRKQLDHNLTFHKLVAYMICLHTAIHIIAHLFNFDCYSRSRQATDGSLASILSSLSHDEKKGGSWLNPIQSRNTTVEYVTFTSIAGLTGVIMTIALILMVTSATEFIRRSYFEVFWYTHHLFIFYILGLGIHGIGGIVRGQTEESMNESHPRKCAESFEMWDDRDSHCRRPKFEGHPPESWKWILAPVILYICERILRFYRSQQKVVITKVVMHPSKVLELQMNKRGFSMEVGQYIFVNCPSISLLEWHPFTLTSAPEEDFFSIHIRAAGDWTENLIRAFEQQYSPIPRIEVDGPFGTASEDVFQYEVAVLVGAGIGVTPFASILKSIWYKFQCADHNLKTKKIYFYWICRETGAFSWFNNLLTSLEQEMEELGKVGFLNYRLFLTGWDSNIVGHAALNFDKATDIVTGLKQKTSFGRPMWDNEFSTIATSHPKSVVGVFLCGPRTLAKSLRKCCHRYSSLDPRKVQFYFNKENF

[8] = molecular target: Aryl hydrocarbon receptor (Homo sapiens, UniProt P35869); assay: Luminescence-based cell-based high throughput dose response assay for activators of the Aryl Hydrocarbon Receptor (AHR). [Related pubchem assays: 2796 (Primary screen (AHR activators in singlicate)), 2845 (Confirmation screen (AHR activators in triplicate)), 434939 (Counterscreen (PXR activators in triplicate)), 2804 (Summary (AHR activators))]; type: ADME
Sequence of Aryl hydrocarbon receptor (P35869 whole entry): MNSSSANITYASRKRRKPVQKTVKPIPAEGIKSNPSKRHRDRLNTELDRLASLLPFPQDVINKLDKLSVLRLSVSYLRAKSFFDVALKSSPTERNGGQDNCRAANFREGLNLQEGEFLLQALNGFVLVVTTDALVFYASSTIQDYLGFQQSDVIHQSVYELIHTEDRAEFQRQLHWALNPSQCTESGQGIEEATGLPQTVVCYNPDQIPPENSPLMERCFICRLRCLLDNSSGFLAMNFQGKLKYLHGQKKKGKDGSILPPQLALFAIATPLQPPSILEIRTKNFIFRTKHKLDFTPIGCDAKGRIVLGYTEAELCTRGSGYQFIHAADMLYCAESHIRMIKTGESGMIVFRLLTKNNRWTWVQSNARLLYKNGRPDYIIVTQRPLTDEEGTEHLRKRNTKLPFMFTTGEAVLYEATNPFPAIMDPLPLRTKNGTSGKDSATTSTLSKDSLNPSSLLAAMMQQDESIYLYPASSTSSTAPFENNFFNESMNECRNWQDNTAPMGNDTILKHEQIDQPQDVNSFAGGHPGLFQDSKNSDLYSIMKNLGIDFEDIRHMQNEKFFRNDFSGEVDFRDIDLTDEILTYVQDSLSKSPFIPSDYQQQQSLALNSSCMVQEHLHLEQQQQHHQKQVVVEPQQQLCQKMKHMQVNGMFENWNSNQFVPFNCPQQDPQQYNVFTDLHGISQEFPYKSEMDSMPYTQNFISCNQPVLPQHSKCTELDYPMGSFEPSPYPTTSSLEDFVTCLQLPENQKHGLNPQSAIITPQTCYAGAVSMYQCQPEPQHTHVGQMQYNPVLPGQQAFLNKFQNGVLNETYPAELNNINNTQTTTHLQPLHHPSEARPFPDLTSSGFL

Leucine aminopeptidase = molecular target: T3, Leucine aminopeptidase (Plasmodium falciparum 3D7, UniProt Q8IL11); assay: P. falciparum M17LAP inhibitors, primary screen, biochemical, fluorogenic H-Leu-NHMec substrate, 1536-well (AID 1619); type: functional
T3 sequence (Q8IL11 whole entry): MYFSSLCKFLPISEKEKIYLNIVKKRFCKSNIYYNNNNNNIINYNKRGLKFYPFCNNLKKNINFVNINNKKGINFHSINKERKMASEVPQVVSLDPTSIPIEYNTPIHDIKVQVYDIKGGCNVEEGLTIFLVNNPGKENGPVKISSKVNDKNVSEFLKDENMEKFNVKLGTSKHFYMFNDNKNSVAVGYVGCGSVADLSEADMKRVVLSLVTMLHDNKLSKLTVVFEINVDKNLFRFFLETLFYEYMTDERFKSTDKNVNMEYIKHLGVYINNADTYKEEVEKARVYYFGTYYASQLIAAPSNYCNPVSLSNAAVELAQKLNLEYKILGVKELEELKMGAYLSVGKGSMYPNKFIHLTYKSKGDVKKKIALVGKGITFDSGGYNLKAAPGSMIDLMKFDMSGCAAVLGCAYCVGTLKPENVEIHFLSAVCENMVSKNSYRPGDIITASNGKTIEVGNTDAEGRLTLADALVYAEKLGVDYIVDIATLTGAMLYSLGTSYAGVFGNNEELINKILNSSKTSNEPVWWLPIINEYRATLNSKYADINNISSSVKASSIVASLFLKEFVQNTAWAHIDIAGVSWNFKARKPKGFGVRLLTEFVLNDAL

Vero = assay: host cell cytotoxicity of antiviral hits, dose response, cytotoxicity control for West Nile virus antiviral project, secondary assay (AID 1650); type: functional; settings: Chlorocebus sabaeus
[9] = Luminescence Cell-Based Dose Retest to Confirm Inhibitors of Cancer Stem Cells. [Related pubchem assays (depositor defined):AID2717, AID2721]; type: functional; settings: Homo sapiens
[10] = molecular target: T4, Tyrosine-protein phosphatase non-receptor type 7 (Homo sapiens, UniProt P35236); assay: inhibitors of human HePTP phosphatase, […], biochemical, absorbance, leukemia target (AID 521); type: functional
T4 sequence (P35236 whole entry): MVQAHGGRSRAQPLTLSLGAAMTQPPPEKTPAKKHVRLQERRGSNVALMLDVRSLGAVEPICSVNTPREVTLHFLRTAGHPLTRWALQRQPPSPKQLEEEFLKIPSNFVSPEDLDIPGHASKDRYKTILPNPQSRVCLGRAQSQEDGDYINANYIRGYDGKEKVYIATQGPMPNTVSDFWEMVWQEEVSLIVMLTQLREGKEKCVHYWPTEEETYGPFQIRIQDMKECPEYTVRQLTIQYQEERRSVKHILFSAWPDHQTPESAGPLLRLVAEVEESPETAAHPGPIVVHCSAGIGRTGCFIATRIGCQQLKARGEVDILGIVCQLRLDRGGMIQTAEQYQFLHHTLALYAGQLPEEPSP

[11] = molecular target: Glyceraldehyde-3-phosphate dehydrogenase (Homo sapiens, UniProt P04406)
Sequence of Glyceraldehyde-3-phosphate dehydrogenase (P04406 whole entry): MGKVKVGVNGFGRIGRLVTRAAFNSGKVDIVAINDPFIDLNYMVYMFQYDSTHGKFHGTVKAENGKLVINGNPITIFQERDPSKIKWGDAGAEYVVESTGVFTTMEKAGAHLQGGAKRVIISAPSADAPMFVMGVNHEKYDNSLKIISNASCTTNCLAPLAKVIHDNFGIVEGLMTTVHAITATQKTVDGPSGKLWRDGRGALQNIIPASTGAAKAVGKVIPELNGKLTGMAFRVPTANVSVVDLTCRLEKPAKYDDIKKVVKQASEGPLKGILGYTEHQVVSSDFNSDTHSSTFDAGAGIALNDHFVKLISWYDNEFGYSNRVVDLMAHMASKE

Bcl-2-related protein A1 [12] = molecular target: T5, Bcl-2-related protein A1 (Mus musculus, UniProt Q07440); assay: Bfl-1 binding inhibitors, SAR follow-up, biochemical, fluorescence polarization (AID 1070)
T5 sequence (Q07440 whole entry): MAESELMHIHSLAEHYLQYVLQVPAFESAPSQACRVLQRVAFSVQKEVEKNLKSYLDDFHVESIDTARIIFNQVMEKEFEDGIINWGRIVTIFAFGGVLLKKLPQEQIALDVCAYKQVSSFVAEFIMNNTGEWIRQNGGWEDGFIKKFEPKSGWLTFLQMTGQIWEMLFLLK

Bcl-2-related protein A1 [13] = molecular target: T5, Bcl-2-related protein A1; assay: Bfl-1 inhibitors blocking BH3 peptide binding, confirmation, biochemical, TR-FRET, mouse Bfl-1 (AID 621);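 note: TR-FRET binding of GST-Bfl-1 to FITC-labelled Bid peptide via terbium antibody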
[14] = molecular target: Serine/threonine-protein phosphatase (Homo sapiens, UniProt Q9BPW0); assay: PP5 phosphatase inhibitors, dose response, biochemical, fluorescence (AID 2395)
[15] = molecular target: Serine/threonine-protein phosphatase PP1-alpha catalytic subunit (Homo sapiens, UniProt P62136); assay: PP1 phosphatase inhibitors, dose response, biochemical, fluorescence (AID 2394)
Sequence of Serine/threonine-protein phosphatase PP1-alpha catalytic subunit (P62136 whole entry): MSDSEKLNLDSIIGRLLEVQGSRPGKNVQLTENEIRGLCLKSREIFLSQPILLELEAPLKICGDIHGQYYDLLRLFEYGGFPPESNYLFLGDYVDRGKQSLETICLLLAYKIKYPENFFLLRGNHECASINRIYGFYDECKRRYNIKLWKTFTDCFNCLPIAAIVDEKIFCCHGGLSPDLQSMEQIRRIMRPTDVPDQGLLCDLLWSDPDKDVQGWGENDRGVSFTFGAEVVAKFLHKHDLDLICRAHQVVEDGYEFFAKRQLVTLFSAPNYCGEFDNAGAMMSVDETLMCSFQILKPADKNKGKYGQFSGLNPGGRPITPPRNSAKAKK

[16] = molecular target: RNA-editing ligase 1, mitochondrial (Trypanosoma brucei brucei, UniProt P86926); assay: TbREL1 ligase inhibitors, dose response, biochemical, fluorescence, Trypanosoma brucei (AID 1117295); type: functional
Sequence of RNA-editing ligase 1, mitochondrial (P86926 whole entry): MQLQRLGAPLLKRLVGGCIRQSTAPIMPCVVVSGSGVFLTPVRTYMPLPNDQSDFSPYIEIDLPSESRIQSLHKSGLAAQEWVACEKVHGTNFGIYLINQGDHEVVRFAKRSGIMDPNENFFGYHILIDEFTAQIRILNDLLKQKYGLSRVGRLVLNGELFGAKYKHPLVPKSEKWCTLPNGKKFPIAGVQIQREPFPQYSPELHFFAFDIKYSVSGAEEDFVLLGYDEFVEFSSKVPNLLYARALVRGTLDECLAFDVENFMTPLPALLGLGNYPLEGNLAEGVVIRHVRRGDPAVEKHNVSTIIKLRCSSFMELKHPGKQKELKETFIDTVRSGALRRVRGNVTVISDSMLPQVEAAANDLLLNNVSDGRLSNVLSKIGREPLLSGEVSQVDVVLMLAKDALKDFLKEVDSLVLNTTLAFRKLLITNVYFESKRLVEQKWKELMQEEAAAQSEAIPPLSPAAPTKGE

[17] = molecular target: Histone-lysine N-methyltransferase NSD2 (Homo sapiens, UniProt O96028); type: biochemical
Sequence of Histone-lysine N-methyltransferase NSD2 (O96028 whole entry): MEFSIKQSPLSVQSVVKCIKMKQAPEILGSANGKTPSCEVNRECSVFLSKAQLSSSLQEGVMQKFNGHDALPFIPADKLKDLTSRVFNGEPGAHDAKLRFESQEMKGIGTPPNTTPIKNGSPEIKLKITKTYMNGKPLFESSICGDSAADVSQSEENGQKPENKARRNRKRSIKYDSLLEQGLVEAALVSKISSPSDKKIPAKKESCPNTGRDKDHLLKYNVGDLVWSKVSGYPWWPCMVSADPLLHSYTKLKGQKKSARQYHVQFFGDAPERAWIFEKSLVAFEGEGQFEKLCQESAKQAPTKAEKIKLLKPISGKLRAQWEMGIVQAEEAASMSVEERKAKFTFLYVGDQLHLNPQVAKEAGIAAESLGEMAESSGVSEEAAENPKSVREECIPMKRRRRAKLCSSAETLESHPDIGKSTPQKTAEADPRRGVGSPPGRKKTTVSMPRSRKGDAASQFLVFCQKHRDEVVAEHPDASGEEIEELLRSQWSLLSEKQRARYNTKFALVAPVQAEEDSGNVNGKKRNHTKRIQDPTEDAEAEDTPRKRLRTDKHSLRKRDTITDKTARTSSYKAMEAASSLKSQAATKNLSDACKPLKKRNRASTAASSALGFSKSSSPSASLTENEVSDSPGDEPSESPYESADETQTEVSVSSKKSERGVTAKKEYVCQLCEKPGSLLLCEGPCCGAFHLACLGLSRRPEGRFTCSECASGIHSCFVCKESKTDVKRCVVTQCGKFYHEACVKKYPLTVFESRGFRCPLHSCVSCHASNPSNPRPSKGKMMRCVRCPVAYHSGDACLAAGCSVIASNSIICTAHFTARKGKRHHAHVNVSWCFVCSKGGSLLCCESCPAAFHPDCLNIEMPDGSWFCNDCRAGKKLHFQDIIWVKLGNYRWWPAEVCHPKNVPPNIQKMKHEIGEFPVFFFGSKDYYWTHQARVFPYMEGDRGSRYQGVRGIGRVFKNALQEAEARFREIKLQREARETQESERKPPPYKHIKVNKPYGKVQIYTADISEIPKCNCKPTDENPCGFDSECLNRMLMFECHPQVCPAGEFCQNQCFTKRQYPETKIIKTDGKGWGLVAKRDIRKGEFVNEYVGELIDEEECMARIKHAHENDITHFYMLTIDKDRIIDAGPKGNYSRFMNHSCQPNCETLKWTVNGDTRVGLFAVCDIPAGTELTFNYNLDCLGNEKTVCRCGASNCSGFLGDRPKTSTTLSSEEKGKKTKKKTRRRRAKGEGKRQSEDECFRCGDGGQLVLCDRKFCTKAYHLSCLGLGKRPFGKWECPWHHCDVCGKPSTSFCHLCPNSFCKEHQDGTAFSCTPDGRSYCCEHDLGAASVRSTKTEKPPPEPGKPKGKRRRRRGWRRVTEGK

[18] = molecular target: T6, Apoptotic protease-activating factor 1 (Homo sapiens, UniProt O14727); type: functional
T6 sequence (O14727 whole entry): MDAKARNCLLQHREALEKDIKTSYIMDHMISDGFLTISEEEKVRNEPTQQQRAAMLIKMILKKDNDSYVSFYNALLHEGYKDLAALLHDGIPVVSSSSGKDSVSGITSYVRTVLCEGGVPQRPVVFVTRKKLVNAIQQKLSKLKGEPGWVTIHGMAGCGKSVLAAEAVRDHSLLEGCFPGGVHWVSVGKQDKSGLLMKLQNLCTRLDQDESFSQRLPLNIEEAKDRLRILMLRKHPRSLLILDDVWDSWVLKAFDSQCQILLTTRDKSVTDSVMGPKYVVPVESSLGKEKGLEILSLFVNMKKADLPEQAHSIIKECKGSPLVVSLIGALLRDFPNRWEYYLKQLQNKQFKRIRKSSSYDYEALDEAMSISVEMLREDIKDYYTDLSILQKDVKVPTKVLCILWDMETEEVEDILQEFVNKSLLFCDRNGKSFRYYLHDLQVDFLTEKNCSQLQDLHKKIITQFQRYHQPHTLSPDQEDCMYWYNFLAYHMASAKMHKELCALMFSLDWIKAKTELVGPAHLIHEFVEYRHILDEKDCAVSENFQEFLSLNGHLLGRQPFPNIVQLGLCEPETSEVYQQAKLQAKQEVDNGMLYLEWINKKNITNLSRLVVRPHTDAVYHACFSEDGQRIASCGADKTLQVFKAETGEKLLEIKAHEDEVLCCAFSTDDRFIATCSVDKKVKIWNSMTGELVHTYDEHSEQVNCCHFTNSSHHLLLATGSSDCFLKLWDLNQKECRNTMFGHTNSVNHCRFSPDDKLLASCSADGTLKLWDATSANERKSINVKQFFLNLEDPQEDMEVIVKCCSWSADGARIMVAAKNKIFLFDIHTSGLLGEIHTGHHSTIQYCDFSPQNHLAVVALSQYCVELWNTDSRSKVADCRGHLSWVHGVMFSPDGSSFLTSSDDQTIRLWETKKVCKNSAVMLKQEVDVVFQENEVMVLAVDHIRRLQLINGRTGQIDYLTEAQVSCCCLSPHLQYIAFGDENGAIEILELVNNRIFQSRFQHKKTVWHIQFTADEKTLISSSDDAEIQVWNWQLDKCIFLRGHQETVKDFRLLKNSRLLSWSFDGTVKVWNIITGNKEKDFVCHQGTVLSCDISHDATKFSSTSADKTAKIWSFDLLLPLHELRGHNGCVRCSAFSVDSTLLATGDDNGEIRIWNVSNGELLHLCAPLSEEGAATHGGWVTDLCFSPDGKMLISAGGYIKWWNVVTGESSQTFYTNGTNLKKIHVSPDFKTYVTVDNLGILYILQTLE

[19] = inhibitors of intracellular T. cruzi replication, confirmation, NIH3T3 host cells, beta-gal luminescence (AID 2044); type: functional, cell-based;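 note: intracellular parasites grown in NIH/3T3 mouse fibroblasts as host cells; luminescent beta-galactosidase reporter signal from transgenic T. cruzi replicating inside host cells; inhibitors lower the luminescence signal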
[20] = cytotoxicity toward NIH3T3 fibroblasts, dose response, counter-screen, cell-based, ATP luminescence, mouse fibroblasts (AID 2010); type: functional;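 note: cells exposed to compound for about 90 hours before reading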

Sequence of Polyadenylate-binding protein 1 (P11940 whole entry, the tested form may be a part): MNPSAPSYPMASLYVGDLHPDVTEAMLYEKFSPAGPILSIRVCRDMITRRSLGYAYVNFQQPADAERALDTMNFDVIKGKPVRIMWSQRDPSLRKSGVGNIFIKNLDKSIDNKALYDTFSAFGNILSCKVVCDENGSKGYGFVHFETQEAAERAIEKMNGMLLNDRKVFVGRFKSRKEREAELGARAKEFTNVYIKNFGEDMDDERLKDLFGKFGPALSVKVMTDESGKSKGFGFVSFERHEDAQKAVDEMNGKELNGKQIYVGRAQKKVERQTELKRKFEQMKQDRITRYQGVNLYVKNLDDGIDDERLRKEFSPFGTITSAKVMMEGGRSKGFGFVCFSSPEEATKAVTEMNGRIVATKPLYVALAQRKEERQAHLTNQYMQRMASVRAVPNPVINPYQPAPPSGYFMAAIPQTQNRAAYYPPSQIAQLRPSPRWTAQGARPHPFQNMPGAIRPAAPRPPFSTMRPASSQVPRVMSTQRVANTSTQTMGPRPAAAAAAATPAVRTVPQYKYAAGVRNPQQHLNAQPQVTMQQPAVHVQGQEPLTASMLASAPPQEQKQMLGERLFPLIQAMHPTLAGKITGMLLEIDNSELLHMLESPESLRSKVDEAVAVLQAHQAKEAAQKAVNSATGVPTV

## C[N+]1=C2CCCCCN2C(O)(c2ccccc2)C1 (stereo unspecified)
[1]
  EC50: 13.8 µM (not active)
[2]
  IC50: 3.25 µM (active)
[3]
  IC50: 7.03 µM (active)
[4]
  IC50: 75.1 µM (active)

## Clc1ccc(CSc2nc[nH]n2)cc1
[5]
  IC50: > 100 µM (active)

## Cc1cccc2c1NC(=O)/C2=C1\Nc2ccc(Br)cc2C1=O
Danio rerio
  IC50: 0.52 µM (not active)

## COc1ccc(-c2ccc(SCC(=O)Nc3nccs3)nn2)cc1OC
[6]
  IC50: 6.57 µM (active)
[7]
  IC50: 7.04 µM (active)

## COc1ccc2oc(C(=O)Nc3ccc(N4CCOCC4)cc3)c(C)c2c1
Genome polyprotein
  IC50: > 49.8 µM (not active)
H9c2
  IC50: > 79 µM (inactive)

## COc1cc(/C=N/Nc2c(F)c(F)nc(F)c2F)cc(OC)c1O
NADPH oxidase 1
  IC50: 2.94 µM (active)

## Nc1[nH]ncc1C(=O)Nc1cccc(C(F)(F)F)c1
[8]
  EC50: 12.5 µM (not active)
Leucine aminopeptidase
  IC50: 44.5 µM (active)

## Cc1cc(C)c(C(=O)/C=C/c2ccc(C(C)C)cc2)c(O)n1
Vero
  CC50: 35.8 µM (active)
[9]
  AC50: 9.65 µM (active)

## CCc1ccccc1N(CC(=O)OC)S(C)(=O)=O
[10]
  IC50: > 100 µM (not active)

## COCCNC1=C(Cl)C(=O)N(c2ccc(Cl)c(Cl)c2)C1=O
[11]
  IC50: > 100 µM (not active)
Bcl-2-related protein A1 [12]
  IC50: 12.6 µM (active)
Bcl-2-related protein A1 [13]
  IC50: 4.96 µM (active)

## Oc1ccccc1/C=N/Nc1cc(N2CCCC2)nc(N2CCCC2)n1
[14]
  IC50: 4.26 µM (active)
[15]
  IC50: 34.4 µM (not active)
[16]
  IC50: > 96.6 µM (inactive)
[17]
  AC50: 1.97 µM (active)
[18]
  IC50: 1.03 µM (active)
[19]
  EC50: 1.85 µM (active)
[20]
  EC50: > 60 µM (inconclusive)
